Test results from ChEMBL document CHEMBL4007480, “Synthesis of novel 1,2,4-triazine scaffold as FAK inhibitors with antitumor activity” (Bioorg Med Chem Lett, 2017).

How the values were obtained:
[1] = test system: HCT-116; assay: Inhibition of colony formation in human HCT116 cells
[2] = test system: HCT-116; assay: Cytotoxicity against human HCT116 cells assessed as reduction in cell viability by WST1 assay
[3] = test system: U-87 MG; assay: Cytotoxicity against human U87MG cells assessed as reduction in cell viability by WST1 assay
[4] = test system: U-87 MG; assay: Inhibition of colony formation in human U87MG cells
[5] = test system: U-87 MG; details: Homo sapiens; U-87MG ATCC

IC50 [1] [nM]	IC50 [4] [nM]	Compound	IC50 [2] [nM]	IC50 [3] [nM]	inhibition [5]
60	70	COc1cc(Nc2nnc(Cl)c(Nc3cccc(NS(C)(=O)=O)c3)n2)cc(OC)c1OC	14800	12500	Dose-dependent effect
1700	700	CNC(=O)c1ccccc1Nc1nc(Nc2ccc(N3CCOCC3)cc2)nnc1Cl	500	10100	Dose-dependent effect
4500	500	CNC(=O)c1ccccc1Nc1nc(Nc2cc(C)c(Cl)cc2OC)nnc1Cl	5800	9200	Dose-dependent effect
1000	1500	CNC(=O)c1ccccc1Nc1nc(Nc2ccc(N3CCOCC3)cc2OC)nnc1Cl	190	13300	Dose-dependent effect
270	170	CNC(=O)c1ccccc1Nc1nc(Nc2ccc(N3CCOCC3)cc2OC)ncc1Cl	390	1300	–
1100	14	CNC(=O)c1ccccc1Nc1nc(Nc2ccc(CN)cc2)nnc1Cl	1800	2400	Dose-dependent effect
2100	1700	CNC(=O)c1ccccc1Nc1nc(Nc2cc(OC)c(OC)c(OC)c2)nnc1Cl	14900	17000	Dose-dependent effect
